This test relates to differentiated P19 neurons. Nature of the test: Drug screening using differentiated P19 cell assay (neuroprotection against glutamate/glycine). It is filed as cell-based, murine. The conditions noted are these: for % neuroprotection (cell survival relative to control): screened at 1 micromolar, percentage of control cells surviving after 24 hours; for IC50: dose response 0.005-3 μM, 3 mM glutamate + 1 mM glycine, >1 = no maximum within highest dose (3 μM). The protocol:
Commercially available chemical libraries (BioFocus PLC, UK) were screened using the methods described herein. The stock concentration of the compounds was about 400 μM in DMSO. The concentration of compounds used in the primary screen was 1 μM. […] Columns 4-11 received compounds at the following final concentrations (μM): 3, 1.2, 0.48, 0.192, 0.077, 0.031, 0.012 and 0.005. Each row contained a different compound for confirmation. Only rows B-G received compounds, and rows A and H remained untreated. Data are expressed as % neuroprotection=((compound-glutamate average)/(U0126-glutamate average)×100).
Only the 2-pyridinamines are the subject of this invention, although limited data for 4-pyrimidinamines are presented as well. “% Inh” indicates the percentage of control cells surviving after 24 hours, and represents the neuroprotective effect of the compounds screened at 1 micromolar concentration. IC50 relate to data from dose response experiments. […] ND refers to compounds not tested in dose-response experiments. […]

Here are results for 23 molecules from US20020198219A1, “2-pyridinamine compositions and related methods” (priority 2000, published 2002).

With `CC(C)(C)OC(=O)N1CCN(c2ccc(-c3ccc(Nc4ccc5c(c4)OCCO5)nc3)cc2)CC1` [Cmpd 69], the “% neuroprotection (cell survival relative to control)” value amounted to 99%.

As to `c1ccc(-c2ccc(-c3ccc(Nc4ccc(N5CCOCC5)cc4)nc3)cc2)cc1` [Cmpd 78], the IC50 was found to be 470 nM and the “% neuroprotection (cell survival relative to control)” value is recorded as 109%.

Regarding `COc1ccc(Nc2cccc(-c3cccc(N)c3)n2)cc1` [Cmpd 100], the “% neuroprotection (cell survival relative to control)” value turned out to be 79%.

For `c1ccc2cc(-c3ccc(Nc4ccc5c(c4)OCCO5)nc3)ccc2c1` [Cmpd 81], the IC50 was 470 nM and the “% neuroprotection (cell survival relative to control)” value is given as 107%.

In the case of `Oc1ccc(-c2ccc(Nc3ccc4c(c3)OCCO4)nc2)cc1` [Cmpd 70], the “% neuroprotection (cell survival relative to control)” value is listed as 93%.

As to `COc1cc(Nc2cccc(-c3ccc4ccccc4c3)n2)cc(OC)c1OC` [Cmpd 135, 2-pyridinamine, 6-(2-naphthyl)-N-(3,4,5-trimethoxyphenyl)-], the “% neuroprotection (cell survival relative to control)” value turned out to be 86%. Under “Mus musculus, Neuron”, the IC50 was found to be 210 nM.

For `c1ccc(Oc2ccccc2-c2ccc(Nc3ccc(N4CCOCC4)cc3)nc2)cc1` [Cmpd 28], the IC50 is more than 1000 nM and the “% neuroprotection (cell survival relative to control)” value turned out to be 83%.

Turning to `CCCCCOc1ccc(Nc2ccc(-c3cccc(N(C)C)c3)cn2)cc1` [Cmpd 75], the “% neuroprotection (cell survival relative to control)” value is 88%.

For the molecule `CCCCCOc1ccc(Nc2ccc(-c3ccc(O)cc3)cn2)cc1` [Cmpd 9], the 50% inhibitory concentration (IC50) came to 560 nM and the “% neuroprotection (cell survival relative to control)” value amounted to 84%.

As to `FC(F)(F)Oc1cccc(-c2ccc(Nc3ccc(N4CCOCC4)cc3)nc2)c1` [Cmpd 33], the 50% inhibitory concentration (IC50) is more than 1000 nM and the “% neuroprotection (cell survival relative to control)” value is 89%.

Turning to `COc1ccc(Nc2ccc(-c3ccccc3)cn2)cc1` [Cmpd 82], the “% neuroprotection (cell survival relative to control)” value amounted to 72%.

`COc1ccc(Nc2cccc(-c3ccc(N(C)C)cc3)n2)cc1` [Cmpd 98]: the “% neuroprotection (cell survival relative to control)” value amounted to 71%.

Consider `COc1cc(Nc2cccc(-c3ccccc3Oc3ccccc3)n2)cc(OC)c1OC` [Cmpd 138, 2-pyridinamine, 6-(2-phenoxyphenyl)-N-(3,4,5-trimethoxyphenyl)-], for which the “% neuroprotection (cell survival relative to control)” value is 90%. The concentration for half-maximal inhibition (IC50) (Mus musculus, Neuron) stood at 230 nM.

With `COc1cc(Nc2cccc(-c3cc(C(F)(F)F)cc(C(F)(F)F)c3)n2)cc(OC)c1OC` [Cmpd 137], the IC50 was 590 nM and the “% neuroprotection (cell survival relative to control)” value was found to be 82%.

As to `COc1ccc(Nc2cccc(-c3ccc(C)c(C)c3)n2)cc1` [Cmpd 128], the half-maximal inhibitory concentration (IC50) was 1540 nM and the “% neuroprotection (cell survival relative to control)” value is recorded as 84%.

For the molecule `COc1ccccc1-c1ccc(Nc2ccc(N3CCOCC3)cc2)nc1` [Cmpd 32], the IC50 is more than 1000 nM and the “% neuroprotection (cell survival relative to control)” value turned out to be 100%.

`c1ccc(Oc2ccc(Nc3cccc(-c4ccc5c(c4)OCO5)n3)cc2)cc1` [Cmpd 140]: the “% neuroprotection (cell survival relative to control)” value is 79%.

In the case of `c1cc2c(cc1Nc1ccc(-c3ccc(N4CCOCC4)cc3)cn1)OCCO2` [Cmpd 5], the half-inhibitory concentration (IC50) came out at 284 nM and the “% neuroprotection (cell survival relative to control)” value is reported as 80%.

As for `COc1cc(Nc2cccc(-c3cccc(N(C)C)c3)n2)cc(OC)c1OC` [Cmpd 113], the IC50 amounted to 540 nM and the “% neuroprotection (cell survival relative to control)” value turned out to be 91%.

For the molecule `CCOc1cccc(-c2ccc(Nc3ccc4c(c3)OCCO4)nc2)c1` [Cmpd 73], the “% neuroprotection (cell survival relative to control)” value was found to be 76%.

Turning to `COc1ccc(Nc2cccc(-c3ccc(CNC(=O)OC(C)(C)C)cc3)n2)cc1` [Cmpd 102], the “% neuroprotection (cell survival relative to control)” value was 103%. Moreover, the 50% inhibitory concentration (IC50) (Mus musculus, Neuron) is 940 nM.

Take `COc1ccc(Nc2cccc(-c3ccc4ccccc4c3)n2)cc1` [Cmpd 97]: the “% neuroprotection (cell survival relative to control)” value was found to be 71%.

Regarding `CCCCCOc1ccc(Nc2ccc(-c3ccc(N(C)C)cc3)cn2)cc1` [Cmpd 7, 2-pyridinamine, 5-[4-(dimethylamino)phenyl]-N-[4-(pentyloxy)phenyl]-], the “% neuroprotection (cell survival relative to control)” value came to 88%. In addition, for the setting “Mus musculus, Neuron”, the concentration for half-maximal inhibition (IC50) stood at 240 nM.

By IC50 is commonly meant the concentration at which inhibition is half-maximal.
